# Source: patent publication US20250367283A1, “MEVALONATE PATHWAY INHIBITOR AS HIGHLY-EFFICIENT VACCINE ADJUVANT” (Tsinghua University, priority 2015, published 2025)
# pIC50: −log10 of the molar value.
# Test system: anti-OVA IgG antibody affinity
# Test: Antibody affinity by sodium thiocyanate disruption
# Type: in vivo, mice
# Conditions: IC50 of sodium thiocyanate, after boost
# From the text: Antibody affinity refers to the strength of an antibody to bind to the epitope of an antigen, which is a very important indicator when evaluating an antibody. It is due to gene mutations of antibody-forming cells themselves and selective activation of antigens for B cell clones. The functional state of the body is the result of long-term evolution and continuous adaptation to the external environment, which is of great significance to the defense of the body and the maintenance of autoimmune monitoring. In an in vitro test, the affinity of an antibody is determined by disrupting the antigen-antibody binding by sodium thiocyanate. The determination of antibody affinity is based on the fact that sodium thiocyanate can disrupt the binding of antigen and antibody, and the stronger the affinity of the antibody, the higher the concentration of sodium thiocyanate is required to dissociate the antigen and antibody. From another aspect if the affinity of the antibody is stronger, the effect of an adjuvant is better.
# The OVA protein was diluted to a concentration of 2 μg/ml with a carbonate solution of pH 9.6, coated in a 96-well ELISA plate at 50 μl per well, and left at 4° C. overnight. The ELISA plate was washed five times with PBS containing 0.05% Tween 20, blocked with 1% BSA solution at 200 μl per well, and incubated at room temperature for 2 h. The ELISA plate was washed five times with PBST and the serum with certain dilution was added. Specifically, for the dilutions, the PBS group was not diluted, the simvastatin group was diluted 16-fold, the TH-Z80 group was diluted 16-fold, the TH-Z93 group was diluted 32-fold, the TH-Z145 group was diluted 16-fold, the imiquimod group was diluted 8-fold, the PEI group was diluted 8-fold, the aluminum adjuvant group was diluted 8-fold, the MF59 group was diluted 16-fold, the incomplete Freund's adjuvant group was diluted 32-fold, and the complete Freund's adjuvant group was diluted 64-fold. Before adding sodium thiocyanate, the amount of anti-OVA IgG type antibody in the diluted serum was the same, 50 μl per well, and incubated for 2 h at room temperature. After washing the ELISA plate with PBST for five times, 10 mM, 9.5 mM, 9 mM, 8.5 mM, 8 mM, 7.5 mM, 7 mM, 6.5 mM,6 mM, 5.5 mM, 5 mM, 4.5 mM, 4 mM, 3.5 mM, 3 mM, 2.5 mM, 2 mM, 1.5 mM, and 0.5 mM sodium thiocyanate were added to each well at 50 μl per well, and incubated for 30 min at room temperature. After washing the ELISA plate for five times with PBST, HRP-labeled goat-anti-mouse antibody was added to each well at 50 μl per well and incubated for 45 min at room temperature. The ELISA plate was washed for five times with PBST, and a color developing solution of sodium citrate OPD was added. After 10 min of color development in the dark, sulfuric acid was added to terminate the reaction. According to the readings of ELIASA, the Prism software was used to calculate the IC50 of sodium thiocyanate. The higher the IC50 value, the stronger the antibody affinity produced by the immunization.
# In an in vitro test, the affinity of the antibody was determined by disrupting the binding of the antigen to the antibody by NaSCN. The procedure was as follows: a 96-well ELISA plate was coated with 2 μg/ml OVA, and blocked with 2% BSA. […] Absorbance values at OD 490 nm were read. The IC50 values of NaSCN inhibition were calculated. […]
row,Compound,antibody affinity vs PBS control
1,CCCCCCOc1ccc2c(c1)ncn2CC(O)(P(=O)(O)O)P(=O)(O)O [TH-Z80],significantly high titers and antibody affinities
2,"CCCCCCOc1ccnc(NC(P(=O)(O)O)P(=O)(O)O)c1 [TH-Z93, (((4-(hexyloxy)pyridin-2-yl)amino)methylene)bisphosphonic acid]",significantly high titers and antibody affinities
3,"CCC(C)(C)C(=O)O[C@H]1C[C@@H](C)C=C2C=C[C@H](C)[C@H](CC[C@@H]3C[C@@H](O)CC(=O)O3)[C@H]21 [simvastatin, reference compound]",significantly high titers and antibody affinities
4,"(2-(3-(octyloxy)phenyl)ethane-1,1-diyl)bisphosphonic acid [TH-Z145]",significantly high titers and antibody affinities

# Same assay, conditions: NaSCN IC50, 7 days after boosting
row,Compound,antibody affinity compared to PBS
1,CCCCCCOc1ccc2c(c1)ncn2CC(O)(P(=O)(O)O)P(=O)(O)O [TH-Z80],significantly increased the affinity

# Test system: MDA-MB-231 cells
# Test: MDA-MB-231 proliferation MTT test
# Type: cell-based, human
# Conditions: 72 hours
# Protocol: • Drug dissolution: […] The prepared bisphosphonate stock solution was diluted with DMEM complete medium. The maximum concentration was 1 mM. The dilution was performed serially in a ratio of 1:3.2 with a total of 11 concentration gradients; a. MDA-MB-231 cells were digested the day before. Centrifugation was performed at 1000 rmp for 3 min. The cells were counted. The cells were seeded into a 96-well plate at 3000 cells/well in a volume of 100 μl per well and cultured for 14-16 h. It should be noted that the cell count should be accurate, and the amount of cells seeded per well should be consistent. The cell suspension can be gently shaken in the intermittence of plating, or a row of cells were plated and the cell suspension was pipetted gently with a pipette. The speed of pipetting into the 96-well plate with a pipette should not be too fast or too slow, in order to avoid uneven distribution of cells in the plate, affecting the experiments; the wells at the fringe of the 96-well plate will evaporate slightly faster and the concentration of the solution will change slightly faster. Under normal situation, the central 60 wells should be selected for stimulation. Also, the pipetted liquid should be prevented from creating bubbles. b. After the cells had adhered, the liquid in the 96-well plate was pipetted out and discarded. […] c. 72 hours after the action of drug, the prepared MTT solution (immediately before use, a certain amount of MTT powder was weighed and dissolved in PBS at 5 mg/ml, under dark, filter with 0.22 filter membrane) was added directly to each well with 20 μl per well and continued to culture for 4 hours; d. The filter paper (which can be replaced by an absorbent paper) was laid, and the plate was inverted gently (be careful to prevent the crystal in the well from dropping). After the liquid in the wells was removed, 150 μl of DMSO was added to dissolve the crystals, and the mixture was shaken thoroughly with a shaker for a period of time just to dissolve the crystals. The absorbance (OD value) of each well was measured at 570 nm with ELIASA. The mean value of blank control was calculated as OD Blank. OD value for each well=OD measured-OD Blank. ODNT mean value was calculated. […] Mean and standard error were then calculated. The mean and standard error of each group of drug concentration (uM) and corresponding drug inhibition rate were fitted by Graph Prism software to obtain the IC50 of the drug.
row,Compound,pIC50
1,CCCCCCOc1ccc2c(c1)ncn2CC(O)(P(=O)(O)O)P(=O)(O)O [TH-Z80],4.12
2,CCCCCCCCOc1ccc2c(c1)ncn2CC(O)(P(=O)(O)O)P(=O)(O)O [TH-Z81],4.22
3,CCCCCCCOc1ccc2c(c1)ncn2CC(O)(P(=O)(O)O)P(=O)(O)O [TH-Z152],3.37
4,CCCCCCCCCOc1ccc2c(c1)ncn2CC(O)(P(=O)(O)O)P(=O)(O)O [TH-Z153],3.63

# Test system: B lymphocytes, T lymphocytes, macrophages and dendritic cells in lymph nodes
# Test: Recruitment of cells in lymph nodes after immunization
# Type: in vivo, mice
# Conditions: 24 hours after subcutaneous immunization, vs Ctrl and PBS
# Protocol: Method: Following an similar procedure of example 1, OVA was used as antigen and three inhibitor compounds, simvastatin, TH-Z80, and TH-Z145 were added as adjuvants, respectively. The OVA antigen and adjuvant were mixed at 1:1 and used for immunizing mice by subcutaneous injection. 24 hours after immunization, inguinal lymph nodes ipsilateral to the immunization were removed and separated through a 100 mesh screen into single-cell suspension. Flow cytometry was used to determine changes of the proportions and numbers of B lymphocytes, T lymphocytes, macrophages and dendritic cells in lymph nodes. The marker of the B lymphocyte was B220, the marker of the T lymphocyte was CD3, the markers of the macrophage were CD11b and F4/80, and the marker of the dendritic cell was CD11c.
row,Compound,"proportions and numbers of B lymphocytes, T lymphocytes, macrophages and dendritic cells in lymph nodes"
1,CCCCCCOc1ccc2c(c1)ncn2CC(O)(P(=O)(O)O)P(=O)(O)O [TH-Z80],significantly increased
2,"CCC(C)(C)C(=O)O[C@H]1C[C@@H](C)C=C2C=C[C@H](C)[C@H](CC[C@@H]3C[C@@H](O)CC(=O)O3)[C@H]21 [simvastatin, reference compound]",significantly increased
3,"(2-(3-(octyloxy)phenyl)ethane-1,1-diyl)bisphosphonic acid [TH-Z145]",significantly increased
